Source: US9096518B2, “Substituted hydroxamic acids and uses thereof” (Millennium Pharmaceuticals, Inc., priority 2009, dated 2015)

target: T1, purified human HDAC6 (Homo sapiens, UniProt Q9UBN7); assay: HDAC6 Enzyme Assay; assay type: biochemical
T1 construct: purchased BPS Bioscience 5006
T1 sequence (Q9UBN7 1-1215): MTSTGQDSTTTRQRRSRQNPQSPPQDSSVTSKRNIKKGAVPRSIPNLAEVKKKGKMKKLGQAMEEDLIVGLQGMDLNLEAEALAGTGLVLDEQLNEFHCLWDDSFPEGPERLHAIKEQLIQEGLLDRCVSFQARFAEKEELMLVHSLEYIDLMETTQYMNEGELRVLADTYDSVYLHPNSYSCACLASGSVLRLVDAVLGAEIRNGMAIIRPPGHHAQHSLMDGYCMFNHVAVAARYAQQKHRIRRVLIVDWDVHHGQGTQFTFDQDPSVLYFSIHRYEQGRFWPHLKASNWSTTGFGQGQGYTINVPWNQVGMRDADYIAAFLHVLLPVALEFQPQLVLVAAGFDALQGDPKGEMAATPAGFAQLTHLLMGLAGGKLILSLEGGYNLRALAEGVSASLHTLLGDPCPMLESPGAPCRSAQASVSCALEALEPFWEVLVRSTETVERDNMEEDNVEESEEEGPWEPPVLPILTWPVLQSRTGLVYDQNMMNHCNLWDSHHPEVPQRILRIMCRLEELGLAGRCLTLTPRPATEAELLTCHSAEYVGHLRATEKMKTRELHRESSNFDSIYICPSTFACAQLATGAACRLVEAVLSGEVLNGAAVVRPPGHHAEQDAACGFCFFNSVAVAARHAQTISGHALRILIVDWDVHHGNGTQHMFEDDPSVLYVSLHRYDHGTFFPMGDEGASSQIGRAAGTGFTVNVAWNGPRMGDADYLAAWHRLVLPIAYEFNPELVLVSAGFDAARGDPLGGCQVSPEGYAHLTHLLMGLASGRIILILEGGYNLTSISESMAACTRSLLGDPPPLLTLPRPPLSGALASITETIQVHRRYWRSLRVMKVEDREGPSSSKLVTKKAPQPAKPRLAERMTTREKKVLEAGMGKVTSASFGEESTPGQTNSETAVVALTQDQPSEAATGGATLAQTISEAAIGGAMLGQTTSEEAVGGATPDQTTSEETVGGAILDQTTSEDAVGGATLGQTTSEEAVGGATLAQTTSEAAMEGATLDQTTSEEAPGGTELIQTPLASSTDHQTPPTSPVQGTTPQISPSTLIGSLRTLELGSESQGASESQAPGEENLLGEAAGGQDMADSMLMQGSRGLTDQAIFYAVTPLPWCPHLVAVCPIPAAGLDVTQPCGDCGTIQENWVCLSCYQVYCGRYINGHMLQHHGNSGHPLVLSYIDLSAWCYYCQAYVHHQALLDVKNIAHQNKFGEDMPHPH
Method: To measure the inhibition of HDAC6 activity, purified human HDAC6 (BPS Bioscience; Cat. No. 5006) is incubated with substrate Ac-Arg-Gly-Lys(Ac)-AMC peptide (Bachem Biosciences; Cat. No. I-1925) for 1 hour at 30° C. in the presence of test compounds or vehicle DMSO control. The reaction is stopped with the HDAC inhibitor trichostatin A (Sigma; Cat. No. T8552) and the amount of Arg-Gly-Lys-AMC generated is quantitated by digestion with trypsin (Sigma; Cat. No. T1426) and subsequent measurement of the amount of AMC released using a fluorescent plate reader (Pherastar; BMG Technologies) set at Ex 340 nm and Em 460 nm. Concentration response curves are generated by calculating the fluorescence increase in test compound-treated samples relative to DMSO-treated controls, and enzyme inhibition (IC50) values are determined from those curves.

IC50 [nM]	SMILES
< 50	O=C(NO)c1ccc2c(c1)CCN(C(=O)C13CC4CC(CC(C4)C1)C3)C2 [Compound 33, 2-[1-adamantylcarbonyl]-N-hydroxy-1,2,3,4-tetrahydroisoquinoline-6-carboxamide]
50 to 100	COc1cccc(CC(=O)N2CCc3cc(C(=O)NO)ccc3C2)c1 [Compound 34, N-hydroxy-2-[(3-methoxyphenyl)acetyl]-1,2,3,4-tetrahydroisoquinoline-6-carboxamide]
100 to 500	CC(C)c1ccc(CC(=O)N2CCc3cc(C(=O)NO)ccc3C2)cc1 [Compound 35, N-hydroxy-2-[(4-isopropylphenyl)acetyl]-1,2,3,4-tetrahydroisoquinoline-6-carboxamide]
100 to 500	CC(=O)N1CCC(C(=O)N2CCc3cc(C(=O)NO)ccc3C2)CC1 [Compound 36, 2-[(1-acetylpiperidin-4-yl)carbonyl]-N-hydroxy-1,2,3,4-tetrahydroisoquinoline-6-carboxamide]
100 to 500	Cc1cc(C(F)(F)F)nn1CC(=O)N1CCc2cc(C(=O)NO)ccc2C1 [Compound 37, N-hydroxy-2-{[5-methyl-3-(trifluoromethyl)-1H-pyrazol-1-yl]acetyl}-1,2,3,4-tetrahydroisoquinoline-6-carboxamide]
50 to 100	CCCCS(=O)(=O)N1CCc2cc(C(=O)NO)ccc2C1 [Compound 38, 2-(butylsulfonyl)-N-hydroxy-1,2,3,4-tetrahydroisoquinoline-6-carboxamide]
50 to 100	O=C(NO)c1ccc2c(c1)CCN(S(=O)(=O)Cc1ccccc1)C2 [Compound 39, 2-(benzylsulfonyl)-N-hydroxy-1,2,3,4-tetrahydroisoquinoline-6-carboxamide]
100 to 500	CCCS(=O)(=O)N1CCc2cc(C(=O)NO)ccc2C1 [Compound 40, N-hydroxy-2-(propylsulfonyl)-1,2,3,4-tetrahydroisoquinoline-6-carboxamide]
100 to 500	CC(C)c1ccc(S(=O)(=O)N2CCc3cc(C(=O)NO)ccc3C2)cc1 [Compound 42, N-hydroxy-2-[(4-isopropylphenyl)sulfonyl]-1,2,3,4-tetrahydroisoquinoline-6-carboxamide]
50 to 100	COc1ccc(-c2ccc(S(=O)(=O)N3CCc4cc(C(=O)NO)ccc4C3)cc2)cc1 [Compound 43, N-hydroxy-2-[(4′-methoxybiphenyl-4-yl)sulfonyl]-1,2,3,4-tetrahydroisoquinoline-6-carboxamide]
50 to 100	CC(C)(C)c1ccc(S(=O)(=O)N2CCc3cc(C(=O)NO)ccc3C2)cc1 [Compound 44, 2-[(4-tert-butylphenyl)sulfonyl]-N-hydroxy-1,2,3,4-tetrahydroisoquinoline-6-carboxamide]
50 to 100	Cc1ccc(S(=O)(=O)N2CCc3cc(C(=O)NO)ccc3C2)cc1 [Compound 45, N-hydroxy-2-[(4-methylphenyl)sulfonyl]-1,2,3,4-tetrahydroisoquinoline-6-carboxamide]
< 50	O=C(NO)c1ccc2c(c1)CCN(S(=O)(=O)c1ccc3ccccc3c1)C2 [Compound 47, N-hydroxy-2-(2-naphthylsulfonyl)-1,2,3,4-tetrahydroisoquinoline-6-carboxamide]
50 to 100	O=C(NO)c1ccc2c(c1)CCN(S(=O)(=O)c1cccc(-c3ccc(F)cc3)c1)C2 [Compound 48, 2-[(4′-fluorobiphenyl-3-yl)sulfonyl]-N-hydroxy-1,2,3,4-tetrahydroisoquinoline-6-carboxamide]
< 50	COc1ccc(S(=O)(=O)N2CCc3cc(C(=O)NO)ccc3C2)cc1 [Compound 49, N-hydroxy-2-[(4-methoxyphenyl)sulfonyl]-1,2,3,4-tetrahydroisoquinoline-6-carboxamide]
100 to 500	O=C(NO)c1ccc2c(c1)CCN(S(=O)(=O)c1ccc(F)cc1)C2 [Compound 50, 2-[(4-fluorophenyl)sulfonyl]-N-hydroxy-1,2,3,4-tetrahydroisoquinoline-6-carboxamide]
